In brackets after ≈: the same amount, converted by molar mass.
Legend:
[1] = Dilution in Cation Adjusted Mueller Hinton Broth; type: physicochemical
Protocol: For each of the five test compounds, a […] stock solution was created by dissolving 2.56 grams of compound in 10 ml of dimethyl sulfoxide (DMSO). The resulting solution was then aliquoted into 500 μL volumes and stored at −80° C. A […] stock solution of ampicillin was also created by dissolving 0.303 grams of ampicillin (Sigma A-0166) in 10 ml of DMSO. This solution was aliquoted and stored in the same manner as the five test compounds. When these compounds were required, a 256 μg/ml working solution was created by diluting 100 μl of stock solution (25.6 mg/ml) in 9.9 ml of Cation-Adjusted Mueller Hinton Broth (CAMHB)
LP4525 had the most consistent MIC values for all isolates, and this is evidenced by the small MIC range. LP4525 also has a lower MIC90 value compared to all compounds.

[2] = system: Staphylococcus isolates (methicillin-sensitive and methicillin-resistant); experiment: Minimum inhibitory concentration assay (Example 1); type: cell-based; conditions: for MIC50 and MIC90 values compared with ampicillin: methicillin-resistant isolates
Protocol: Forty-two isolates of Staphylococcus of varying species and strain type were collected from isolate collections. Biochemical testing including coagulase, latex agglutination testing for protein A, Vogues-Proskauer tests and resistance to polymyxin B were used to identify the species of Staphylococcus. All isolates were also screened for resistance to various antimicrobials commonly used for the treatment of infections. This was performed using the disk diffusion method and resistance standards as outlined by the CLSI. The following antimicrobials were used: amoxicillin-clavulanic acid (30 μg), cephalothin (30 μg), clindamycin (2 μg), enrofloxacin (5 μg), erythromycin (15 μg), gentamicin (10 μg), imipenem (10 μg), oxacillin (1 μg), penicillin G (10 units), tetracycline (30 μg), 1:19 trimethoprim-sulfamethoxazole (25 μg) and vancomycin (30 μg).
Minimum inhibitory concentration tests were performed according to CLSI Standards (CLSI 2012). 90 μL of one of the test compound solutions, or ampicillin, was added to the end column of a 96 well plate that contained 90 μL of CAMHB in each well. The solutions were then serially diluted across the row, leaving 2 columns for positive and negative controls (FIG. 2). A bacterial suspension was prepared by adding fresh colonies obtained from an overnight culture on Sheep Blood Agar (SBA) to a 9.1 g/L saline solution. This suspension was adjusted to a concentration of between 4×10^8 and 5×10^8 CFU/mL. Concentration of the suspension was determined by measuring optical density (OD) using a spectrophotometer at a wavelength of 600 nm where the correct concentration was determined to have an optical density of between 1.00 and 1.20. 1 mL of this suspension was added to 9 mL of saline before being added to all wells, excluding the negative control wells, in 10 μL volumes giving a final concentration of between 4×10^5 and 5×10^5 CFU/mL in each well. The tests were then incubated for 24 hours at 37° C. and then assessed both visually and using OD readings from a microplate reader at a wavelength of 600 nm. These tests were performed in duplicate but repeated if discrepancies were observed.
The minimum inhibitory concentration (MIC) was determined to be the lowest concentration of antibiotic that prevented growth of bacteria both visually and using OD readings. Direct statistical comparisons between the test compounds and ampicillin could not be performed in light of confidential information restrictions, such as restrictions on disclosure of information relating to the compound structure, such as molecular weight. Instead, MIC values were collated and used to determine the lowest concentration of each compound that was effective against 50% and 90% of isolates, referred to as the MIC50 and MIC90 respectively. These values as well as the range of MIC values were then used for direct comparisons between test compounds and for general comparisons with ampicillin.

[3] = system: bovine mastitis isolates; experiment: Minimum inhibitory concentration assay (Example 3); type: cell-based
Text: Fifty-one dairy bovine mastitis isolates, encompassing a variety of bacterial species, were isolated from milk samples collected from dairy farms in rural South Australia by the University of Adelaide Ambulatory Clinic. Cellular morphology observed from Gram stains and catalase testing was used to differentiate Staphylococcus, Streptococcus and Corynebacterium species from Gram-negative species. Further biochemical testing including coagulase, Lancefield grouping, esculin hydrolysis and CAMP tests were used to identify the isolates to species level. Where biochemical test results were not definitive in identifying species, amplification and sequencing of the 16S ribosomal RNA gene was used to confirm the identity of the isolates.
Minimum inhibitory concentration tests were performed in the manner outlined by the CLSI (CLSI 2012). Test compounds were dispensed into a 96-well microtitre tray containing 90 μl of CAMHB in 90 μl volumes and serial diluted to obtain a concentration gradient ranging from 128 μg/ml to 0.25 μg/ml (see FIG. 24). For Streptococcus species, CAMHB was replaced with a CAMHB supplement with 4% lysed-sheep blood (4% LSB:CAMHB). 4% LSB:CAMHB was prepared by mixing 5 ml sheep blood to 5 ml milliQ water, and repeated freezing at −20° C. and thawing, followed by centrifuged for 20 min at 7000 rpm. 7 ml of the supernatant was removed and added to 93 mL of CAMB.
Bacterial suspensions were prepared by emulsifying fresh colonies obtained from an overnight culture on Sheep Blood Agar (SBA) in 4 mls of 9.1 g/l physiological saline to an optical density read at 600 nm (OD600nm) between 1.00 and 1.20. Standardised bacterial suspensions were diluted 1:10 in physiological saline and dispensed into all wells, excluding the negative control wells, in 10 μL volumes giving a final concentration of between 4×10^5 and 5×10^5 CFU/mL in each well. 96-well microtitre trays were incubated for 24 hours at 37° C. in 5% CO2 and then assessed both visually and using OD readings from a microplate reader at a wavelength of 600 nm. These tests were performed in duplicate and repeated if discrepancies in MIC values were observed between replicates.
The minimum inhibitory concentration (MIC) was determined to be the lowest concentration of antibiotic that prevented growth of bacteria both visually and using OD readings. MIC values were collated and used to determine the lowest concentration of each compound effective against 50% and 90% of isolates, known as the MIC50 and MIC90 respectively. These values as well as the range of MIC values were then used for direct comparisons between test compounds and for general comparisons with ampicillin.

[4] = system: Staphylococcus isolates (methicillin-sensitive and methicillin-resistant); experiment: Minimum bactericidal concentration determination (Example 1); type: cell-based; conditions: for bactericidal activity (MBC testing): methicillin-sensitive and methicillin-resistant strains
Protocol: Following determination of the MIC using the 96 well MIC plate, a variation of the drop plate method was used to determine minimum bactericidal concentration (MBC) for each of the test compounds. These were analysed using samples taken from the MIC plate following incubation. For each compound, a 10 μL drop of each concentration equal to or higher than the MIC was pipetted onto Sheep Blood Agar in a clockwise manner (FIG. 3). Each concentration was pipetted in duplicate with duplicates being pipetted on an inner ring of drops. The plates were incubated at 37° C. overnight and assessed the following day for growth. The MBC was defined as the concentration at which 99.9% of colonies were eradicated, which was visually assessed by a lack of growth on the agar where the drop was placed. […] The MBC values for 50% and 90% of the isolates (MBC50 and MBC90) were calculated and assessed along with the MBC range in order to select compounds for further study.

[5] = system: ATCC 49775 reference strain; experiment: Macrodilution time-kill assay; type: cell-based, Staphylococcus; conditions: 24 hours
Protocol: (§1) Due to the detection limit of the OD measurements, the time-kill assays were also performed in macrodilution. In 15 mL tubes, 9 mL volumes of the test compounds in CAMHB were prepared at one, four and eight times the MIC concentration and 9 mL volumes of ampicillin were prepared in CAMHB at one and four times the MIC. 1 mL of a 4 to 5×10^6 bacterial suspension (as prepared for MIC testing) was added to each of the tubes as well as a growth control tube containing only 9 mL of CAMHB. These tubes were incubated at 37° C. in an orbital shaker rotating at 100 rpm for 24 hours. At 0, 1, 4, 8, 12 and 24 hours after addition of the bacteria, 100 μL samples were removed from each tube and serial diluted in 9.1 g/L saline solution. The dilutions were then plated in duplicate onto plate count agar and incubated for 24 hours at 37° C. After incubation, viable counts were obtained from the number of colonies visible on the agar and these were used to calculate the number of CFU/mL at each time point. For the macrodilution time-kill analysis, only the ATCC 49775 reference strain and MRSA 9 were assessed in order to further investigate the antibacterial activity against methicillin-resistant strains. These macrodilution time-kill assays were independently repeated and bactericidal activity was defined as a ≥3 log decrease in the number of CFU/mL.

[6] = system: MRSA 9; experiment: Macrodilution time-kill assay; type: cell-based, Staphylococcus aureus; conditions: 24 hours
Protocol: as §1

[7] = system: MRSA 9; experiment: Microdilution time-kill assay; type: cell-based, Staphylococcus aureus; conditions: 48 hours
Protocol: Following assessment of MIC and MBC results, two compounds were chosen for analysis using microdilution time-kill assays, LP 1369 and LP 6315 and these were compared to ampicillin. Time-kill assays were performed according to the M26-A guidelines of the CLSI, with modifications. The test compounds and ampicillin were serial diluted in CAMHB across the rows of a 96 well plate and a bacterial suspension was prepared and added in the same manner as the MIC testing. […] The time points assessed were 0, 1, 2, 4, 8, 12, 24 and 48 hours after the addition of the bacterial suspension to the wells. Each test compound was tested in triplicate while ampicillin was tested in duplicate and this test was independently repeated. The bacterial strains used for the microdilution assays were chosen based on bactericidal activity evident during MBC testing. One strain from each of the categories of Staphylococcus in the isolate collection (methicillin-sensitive, methicillin resistant and coagulase negative) were selected as well as the ATCC reference strain for comparison. These strains were strains MSS 1, MSS 11, MRSA 9 and the ATCC 49775 reference strain.

[8] = humans; cited from earlier work
[9] = dogs; cited from earlier work
[10] = accidental inhalation and swallowing of about 1 mg/kg, human; cited from earlier work
[11] = 51 Australian bovine mastitis isolates

Question: With `CC[C@@]1([C@@H]2O[C@@H]([C@H]3O[C@@](O)(CO)[C@H](C)C[C@@H]3C)C[C@@H]2C)CC[C@H]([C@]2(C)CC[C@]3(C[C@H](O)[C@@H](C)[C@@H]([C@@H](C)[C@@H](OC)[C@H](C)C(=O)O)O3)O2)O1` [LP 9666, Monensin] as the compound, how does the “turbidity or precipitate upon dilution” value [1] read?
Answer: The value was “large amount of precipitate”.

Question: And the “MIC90 value and MIC range (in words)” value ([2]; all strains)?
Answer: Its value is “high MIC90 value and broad MIC range”.

Question: And the “MIC50 and MIC90 values compared with ampicillin” value [2]?
Answer: The value was “considerably lower than ampicillin”.

Question: What about the “antibacterial activity against the bovine mastitis isolates” value [3] of the same compound?
Answer: Its value is “observed”.

Question: And the MIC90 [3, 11]?
Answer: The MIC90 was 128 µg/mL (≈ 191 µM).

Question: What about the “MIC90 values for each of the groups of mastitis pathogens (in words)” value ([3]; compared with the other compounds) of the same compound?
Answer: Its value is “significantly higher”.

Question: What does the source list for Narasin [LP 4525]?
Answer: strains against which bactericidal activity was exhibited more consistently [4]: methicillin-sensitive strains; bactericidal activity (MBC testing) [4]: some bactericidal activity in lower concentrations; MIC50 and MIC90 values compared with ampicillin [2]: considerably lower than ampicillin; MIC values (in words) [3]: low MIC values; antibacterial activity against the bovine mastitis isolates [3]: observed; MIC50 [3, 11]: 0.25 µg/mL; MIC90 [3, 11]: 1 µg/mL

Question: What does the source list for `CC1(C)S[C@@H]2[C@H](NC(=O)[C@H](N)c3ccccc3)C(=O)N2[C@H]1C(=O)O` [ampicillin]?
Answer: bactericidal or bacteriostatic (>=3 log decrease in CFU/mL = bactericidal) ([5]; LP 6315: most concentrations): bactericidal; decrease in the number of viable bacteria ([5]; all concentrations tested): > 3 log10; bactericidal or bacteriostatic (>=3 log decrease in CFU/mL = bactericidal) ([6]; LP 6315: most concentrations): bactericidal; decrease in the number of viable bacteria ([6]; all concentrations tested): > 3 log10; resulting growth after 48 hours [7]: comparable to the growth control

Question: Which “strains against which bactericidal activity was exhibited more consistently” value [4] does the source give for `CC[C@@H](C(=O)[C@@H](C)[C@@H](O)[C@H](C)[C@@H]1O[C@@H]([C@@H](CC)C(=O)O)CC[C@@H]1C)[C@H]1O[C@]2(C=C[C@@H](O)[C@]3(CC[C@@](C)([C@H]4CC[C@](O)(CC)[C@H](C)O4)O3)O2)[C@H](C)C[C@@H]1C` [LP 1088, Salinomycin] here?
Answer: Its value is “methicillin-sensitive strains”.

Question: What about the “bactericidal activity (MBC testing)” value [4] of the same compound?
Answer: Its value is “some bactericidal activity in lower concentrations”.

Question: What about the “acceptable daily intake (ADI)” value [8] of the same compound?
Answer: The value was 5 µg/kg.

Question: What about the “daily intake that leads to neurotoxic effects (myelin loss, axonal degeneration)” value [9] of the same compound?
Answer: The value was “more than 500 μg/kg”.

Question: What about the “toxicity after accidental exposure” value [10] of the same compound?
Answer: The value was “severe acute and chronic salinomycin toxicity”.

Question: What about the “MIC50 and MIC90 values compared with ampicillin” value [2] of the same compound?
Answer: The value was “considerably lower than ampicillin”.

Question: What about the “MIC values (in words)” value [3] of the same compound?
Answer: Its value is “low MIC values”.

Question: And the “antibacterial activity against the bovine mastitis isolates” value [3]?
Answer: Its value is “observed”.

Question: And the MIC90 [3, 11]?
Answer: The MIC90 was 2 µg/mL (≈ 2.66 µM).
